Assay [1] has as its target T1, RAC-beta serine/threonine-protein kinase (Homo sapiens, UniProt P31751). The assay is described as follows: Inhibition of AKT2 at 50 uM by FRET based assay.
Assay [2] addresses T1, RAC-beta serine/threonine-protein kinase. Nature of the assay: Inhibition of AKT2 at 25 uM by FRET based assay.
For a further assay, the system named is MDA-MB-468. The assay is described as follows: Cytotoxicity against human MDA-MB-468 cells with PTEN mutation and EGFR amplification after 12 hrs by MTT assay. The class given is functional, cell-based. The note with it: MDA-MB-468, 12 h.
Assay [3] addresses T1, RAC-beta serine/threonine-protein kinase. Nature of the assay: Inhibition of AKT2 by FRET based assay.
For another assay, the system named is MDA-MB-453. The assay is described as follows: Cytotoxicity against human MDA-MB-453 cells with PIK3CA mutation and HER2 amplification after 12 hrs by MTT assay. The format is functional, cell-based. Conditions: MDA-MB-453, 12 h. (Tetrazolium assays rely on reduction of a dye to a coloured formazan, in cell work by metabolically active cells.)
Assay [4] concerns the target RAC-gamma serine/threonine-protein kinase (Homo sapiens, UniProt Q9Y243). Nature of the assay: Inhibition of AKT3 by FRET based assay.
For assay [5], the target named is RAC-alpha serine/threonine-protein kinase (Homo sapiens, UniProt P31749). The assay is described as follows: Inhibition of AKT1 by FRET based assay.

Structures are written as SMILES. Active and inactive are the calls of the source. The rule behind the calls is not given here.

3 compounds from ChEMBL document CHEMBL1153468, “Discovery of a novel protein kinase B inhibitor by structure-based virtual screening” (Bioorg Med Chem Lett, 2009) can be followed below.

T1 sequence (P31751 whole entry): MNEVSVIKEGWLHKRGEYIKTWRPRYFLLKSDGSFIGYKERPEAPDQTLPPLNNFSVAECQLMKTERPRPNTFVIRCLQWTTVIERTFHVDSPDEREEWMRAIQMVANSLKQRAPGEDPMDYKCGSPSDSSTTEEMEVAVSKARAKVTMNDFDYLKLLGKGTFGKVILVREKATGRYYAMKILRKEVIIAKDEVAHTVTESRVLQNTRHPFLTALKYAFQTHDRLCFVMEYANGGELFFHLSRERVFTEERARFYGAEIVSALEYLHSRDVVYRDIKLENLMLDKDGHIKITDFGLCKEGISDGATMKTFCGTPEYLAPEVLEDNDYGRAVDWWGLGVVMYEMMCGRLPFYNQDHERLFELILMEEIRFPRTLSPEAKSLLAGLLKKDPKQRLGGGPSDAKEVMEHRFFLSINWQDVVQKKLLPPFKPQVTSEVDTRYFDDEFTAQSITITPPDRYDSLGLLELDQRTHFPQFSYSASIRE
RAC-gamma serine/threonine-protein kinase, sequence (Q9Y243 whole entry): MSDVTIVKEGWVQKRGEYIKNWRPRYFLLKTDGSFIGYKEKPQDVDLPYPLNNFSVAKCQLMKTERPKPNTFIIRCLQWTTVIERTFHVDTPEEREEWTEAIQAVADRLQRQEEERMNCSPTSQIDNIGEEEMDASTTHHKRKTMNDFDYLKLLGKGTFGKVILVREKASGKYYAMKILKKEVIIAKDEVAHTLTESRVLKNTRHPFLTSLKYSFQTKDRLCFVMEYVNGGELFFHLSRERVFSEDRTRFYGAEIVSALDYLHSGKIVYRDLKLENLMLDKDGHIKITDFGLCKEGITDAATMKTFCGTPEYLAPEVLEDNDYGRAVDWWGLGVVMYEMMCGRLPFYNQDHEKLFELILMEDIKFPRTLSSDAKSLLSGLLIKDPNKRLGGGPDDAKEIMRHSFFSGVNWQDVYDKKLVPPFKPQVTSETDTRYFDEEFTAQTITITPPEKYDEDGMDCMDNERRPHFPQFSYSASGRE
RAC-alpha serine/threonine-protein kinase, sequence (P31749 whole entry): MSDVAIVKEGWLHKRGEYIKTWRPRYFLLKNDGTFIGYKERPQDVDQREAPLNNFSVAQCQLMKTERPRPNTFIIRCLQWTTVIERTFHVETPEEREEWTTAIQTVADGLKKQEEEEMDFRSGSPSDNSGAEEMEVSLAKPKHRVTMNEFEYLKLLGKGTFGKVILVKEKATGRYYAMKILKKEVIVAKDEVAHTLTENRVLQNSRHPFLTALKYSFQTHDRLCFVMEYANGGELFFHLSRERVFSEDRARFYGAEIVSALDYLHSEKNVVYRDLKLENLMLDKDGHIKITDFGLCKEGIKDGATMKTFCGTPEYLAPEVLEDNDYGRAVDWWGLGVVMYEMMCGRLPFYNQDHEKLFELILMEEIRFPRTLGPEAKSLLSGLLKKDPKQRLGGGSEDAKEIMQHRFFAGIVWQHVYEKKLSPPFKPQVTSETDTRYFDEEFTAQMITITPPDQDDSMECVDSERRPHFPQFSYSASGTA

Regarding `O=S(=O)(NCCNC/C=C/c1ccc(Br)cc1)c1cccc2cnccc12`, the outcome in assay [1] and in assay [2] was inactive.

Regarding `Clc1ccc(C2(c3ccc(-c4cn[nH]c4)cc3)CCNCC2)cc1`, the result in assay [1] and in assay [2] was inactive.

Regarding `O=C1COc2ccc(-c3cc(-c4ccccc4)cc(-c4ccc5oc(=O)[nH]c5c4)n3)cc2N1`, the EC50 (as a rule, the concentration needed to bring the measured effect to its halfway point) was 3.8 µM in the assay on MDA-MB-468 and 10 µM in the assay with MDA-MB-453. Further, the IC50 – broadly, the concentration at which inhibition is half-maximal – in assay [3] is 1.5 µM; in assay [4], 4 µM; in assay [5] it was 2.6 µM.
